Results reported in US20110135671A1, “PURINE DERIVATIVES FOR USE IN THE TREATMENT OF ALLERGIC, INFLAMMATORY AND INFECTIOUS DISEASES” (GLAXOSMITHKLINE LLC, priority 2008, published 2011).
Structures can show the parent of a compound that is named as a salt.

What was measured:
Interferon-α [1] = assay: Induction of Interferon-α using fresh human PBMCs; type: cell-based; details: PBMC, 24 hr, relative to 2 μM resiquimod control, read-out: mean pEC50 for induction of IFN-α (converted)
Experimental: (§1) Assay for the Induction of Interferon-α and TNF-α Using Fresh Human Peripheral Blood Mononuclear Cells (PBMCs)
(§2) Compounds were dissolved and serially diluted in DMSO to give 100× the required concentration range using a Biomek 2000. 1 ul of test compound was transferred into 96-well tissue culture plates using a Biomek FX. Each compound was assayed in duplicate for each donor. Each plate contained a dilution series of the TLR7/8 agonist resiquimod as standard and Column 11 contained 1 μl of 200 μM resiquimod (giving a 2 μM final concentration, used to define the approximate maximal response to resiquimod).
(§3) Blood samples from two human donors were collected into sodium heparin (10 U/ml). 25 ml volumes of whole blood were overlaid onto 15 mls Histopaque in Leucosep tubes which were centrifuged at 800 g for 20 min and the band at the plasma/histopaque interface carefully removed. The collected cells were centrifuged at 2500 rpm for 10 min and the pellet resuspended in 10 ml of media (RPMI 1640 (Low endotoxin) supplemented with 10% v/v foetal calf serum (FCS, low endotoxin) 100 U/ml penicillin G, 100 μg/ml streptomycin, 10 mM L-glutamine and 1× non-essential amino acids). A 1:20 dilution of the cells was prepared using trypan blue & the cells counted using a haemocytometer. The PBMCs were diluted to give a final concentration of 2×10^6/ml and 100 ul of this cells suspension was added to wells containing 1 μl of diluted test compound.
(§4) The cell preparations were incubated for 24 hr (37° C., 95% air, 5% CO2) after which a sample of the supernatant was removed using the Biomek FX and assayed for both IFN-α and TNF-α using the MSD (Mesoscale Discovery) electrochemiluminescence assay platform. The IFN-α assay was carried out similarly to that described above. The TNF-α assay was carried out as per kit instructions (Cat No K111 BHB).
(§5) Cytokine released was expressed as a percentage of the 2 μM resiquimod control (column 11). This percentage was plotted against compound concentration and the pEC50 for the response determined by non-linear least squares curve fitting. For the IFN-α responses generally a 4 parameter logistic model was selected. For the TNF responses where a clear maximum response was obtained (i.e. a well defined plateau in the response was observed) then a 4 parameter model was generally used. If the upper asymptote of the curve wasn't well defined then the curve fitting was generally constrained to a maximal response of 100% (i.e., to the response to 2 μM resiquimod) or to the response of the highest concentration tested if this was greater than the resiquimod response. Some curves were bell shaped for one or both cytokines and the cytokine data on the down slope of the bell shaped response (i.e. concentrations above those giving the maximal response) were generally excluded from the fit, usually with the exception of the concentration immediately above the peak response. Curve fitting thus concentrated on the up slope of the dose response curve.

TNF-α = assay: Induction of TNF-α using fresh human PBMCs; type: cell-based; details: PBMC, 24 hr, relative to 2 μM resiquimod control, read-out: mean pEC50 for induction of TNF-α (converted)
Experimental: as §1, §2, §3, §4, §5

Interferon-α [2] = assay: Induction of Interferon-α using cryopreserved human PBMCs; type: cell-based; details: PBMC, 24 h, normalised to 1 uM resiquimod, read-out: mean pEC50 for induction of Interferon-α (converted)
Experimental: Assay for the Induction of Interferon-α using Cryopreserved Human Peripheral Blood Mononuclear Cells (PBMCs)
Compounds were dissolved in DMSO. Serial 2-fold dilutions with DMSO were prepared and 0.25 μl dispensed into 384-well clear Greiner polypropylene plates.
Blood samples of up to 200 ml were obtained from healthy human donors. Whole blood in 25 ml volumes was overlaid onto 15 ml Ficoll gradients in Leucosep tubes, and centrifuged at 1000 g for 20 min. Cells in the band at the plasma/histopaque interface were carefully removed and washed twice with PBS (centrifuged at 400 g for 5 min to harvest). The final pellet was resuspended in freezing medium (90% Heat-inactivated serum, 10% DMSO) to a cell concentration of 4×10^7 cells/ml. The resuspended cells were then cryopreserved (frozen) using a rate controlled freezer, and stored at −140° C. for up to 4 months.
Incubation and Assay for Interferon-α
Immediately prior to assay, vials of cryopreserved (frozen) PBMCs were thawed rapidly in a water bath at 37° C. A 1:10 dilution of the cells in trypan blue was prepared and counted. The PBMCs were then diluted in growth media [RPMI 1640 containing 10% fetal calf serum (invitrogen), Penicillin+Streptavidin (Gibco cat. # 25030-024, 1:50), L-Glutamine 2 mM, and 1000 units/ml recombinant human IFN-gamma (Preprotech catalogue #300-02)] to a density of 1×10^6 cells/ml, and 50 ul/well dispensed to 384-well clear Greiner polypropylene plates containing 0.25 μl DMSO or test compound in 0.25 μl DMSO. […] Plates were incubated for 24 h at 37° C. in 5% CO2.
A multi-isoform immunoassay was used to quantify IFN-α in PBMC supernatants. Rabbit polyclonal antibody against human IFN-α (catalogue number 31101, Stratech Scientific) was diluted 1:10000 in assay buffer (RPMI 1640 containing 10% fetal calf serum, Invitrogen) and 20 μl was added to each well of an MSD (Meso-Scale Discovery) single small-spot 384-well GAR (goat anti-rabbit antibody coated) plate. The plate was incubated for 1 h at room temperature with vigorous shaking. Following three washes with PBS, 20 μl of cell supernatant were added to each well of the plate. The plate was then incubated for 1 h at room temperature with vigorous shaking. A pair of monoclonal antibodies to IFN-α (catalogue numbers 21100 and 21112, Stratech Scientific) were labelled with sulfo-TAG (MSD), diluted 1:1000 in assay buffer and 20 μl added to each well of the plate. The plate was further incubated for 1 h at room temperature with vigorous shaking. Following three washes with PBS, 30 μl of ×2 T buffer (MSD) was added to each well and the plate was read on an MSD Sector 6000 plate reader.
Data were normalised to internal plate controls of 1 uM resiquimod (n=16) and DMSO (n=16). pEC50 values were derived by 4-parameter curve fit with IRLS in ActivityBase, from 11-point, two-fold serial dilution of test compounds.

Interferon-α [3] = assay: Induction of Interferon-α following intranasal dosing in the mouse; type: in vivo; details: female BALB/c mice, 2 hours after dosing, ELISA
Experimental: Assay for the Induction of Interferon-α Following Intranasal Dosing in the Mouse.
Example 46 was dissolved in 0.2% Tween 80 in saline and administered intranasally (5 μl in total between the nostrils) to female BALB/c mice (n=6) under general anaesthesia. Animals were euthanased 2 hours after dosing and a terminal blood sample was taken and serum levels of Interferon-α was measured using an ELISA assay. Mean serum levels of Interferon-α of 1253 pg/ml were measured. No Interferon-α was detected in vehicle treated controls.

IL-5 = assay: Allergen-driven cytokine assay using fresh human PBMCs from atopic volunteers (IL-5); type: cell-based; details: at 0.04 μM; atopic donor PBMCs with Timothy grass antigen, up to 6 days
Experimental: (§6) Allergen-Driven Cytokine Assay Using Fresh Human Peripheral Blood Mononuclear Cells (PBMCs) from Atopic Volunteers
(§7) An assay based on co-culture of atopic human donor derived peripheral blood mononuclear cells (PBMCs) with allergen and test compounds was developed. After 5-6 days culture, cell supernatants were assayed for a range of cytokines.
(§8) Compounds were dissolved in DMSO, then serially diluted in growth medium (RPMI 1640 medium supplemented with 100 U/ml penicillin G, 100 μg/ml streptomycin, 10 mM L-glutamine) to give 4× the required concentration range in the presence of 0.04% DMSO. Each compound was assayed in triplicate at all concentrations.
(§9) Defibrinated human blood from volunteers known to be allergic to Timothy grass was centrifuged at 2500 rpm for 15 minutes. The upper layer of serum was collected and heat-inactivated at 56° C. for 30 minutes (HI-autologous serum). The lower layer of cells was resuspended in 50 ml PBS (+Ca +Mg), 25 ml diluted blood were overlaid onto 20 ml Lymphoprep in 50 ml tubes then centrifuged at 2500 rpm for 20 minutes at RT. The band at the serum/Lymphoprep interface was carefully removed. […]
(§10) Plates were incubated at 37° C. in 5% CO2 for up to 6 days. […] Cytokines and chemokines in supernatants were detected using Meso Scale Discovery 10 spot plates for Human TH1/Th2 cytokines.

IL-13 = assay: Allergen-driven cytokine assay using fresh human PBMCs from atopic volunteers (IL-13); type: cell-based; details: at 0.2 μM; atopic donor PBMCs with Timothy grass antigen, up to 6 days
Experimental: as §6, §7, §8, §9, §10

| EC50 (Interferon-α [1]) [µM] | EC50 (TNF-α) [µM] | Structure (SMILES) | EC50 (Interferon-α [2]) [µM] | mean serum levels of Interferon-α (Interferon-α [3]) [pg/mL] | reduction of IL-5 production compared to the allergen control (IL-5) [%] | reduction of IL-13 production compared to the allergen control (IL-13) [%] |
| --- | --- | --- | --- | --- | --- | --- |
| < 0.1 | > 3.16 | CCCCOc1nc(N)c2[nH]c(=O)n(CCN3CCNCC3)c2n1 [Example 1, 6-Amino-2-(butyloxy)-9-[2-(1-piperazinyl)ethyl]-7,9-dihydro-8H-purin-8-one dihydrochloride salt] | < 3.16 |  |  |  |
| < 0.1 | > 3.16 | CCCCOc1nc(N)c2[nH]c(=O)n(CCCN3CCN(C)CC3)c2n1 [Example 6, 6-Amino-2-(butyloxy)-9-[3-(4-methyl-1-piperazinyl)propyl]-7,9-dihydro-8H-purin-8-one] | < 3.16 |  |  |  |
| < 0.1 | > 3.16 | CCCCOc1nc(N)c2[nH]c(=O)n(CCCCN3CCN(C)CC3)c2n1 [Example 26, 6-Amino-2-(butyloxy)-9-[4-(4-methyl-1-piperazinyl)butyl]-7,9-dihydro-8H-burin-8-one] | < 3.16 |  |  |  |
| < 0.01 | > 1 | CCCCOc1nc(N)c2[nH]c(=O)n(CCCCN3CCN(CC)CC3)c2n1 [Example 27, 6-Amino-2-(butyloxy)-9-[4-(4-ethyl-1-piperazinyl)butyl]-7,9-dihydro-8H-burin-8-one] | < 3.16 |  |  |  |
| < 0.01 | > 1 | CCCCOc1nc(N)c2[nH]c(=O)n(CCCCN3CCN(C(C)C)CC3)c2n1 [Example 29, 6-Amino-2-(butyloxy)-9-{4-[4-(1-methylethyl)-1-piperazinyl]butyl}-7,9-dihydro-8H-purin-8-one] | < 3.16 |  |  |  |
| < 0.01 | > 1 | CCCCOc1nc(N)c2[nH]c(=O)n(CCCCN3CCN(C(C)(C)C)CC3)c2n1 [Example 32, 6-Amino-2-(butyloxy)-9-{4-[4-(1,1-dimethylethyl)-1-piperazinyl]butyl}-7,9-dihydro-8H-purin-8-one] | < 3.16 |  |  |  |
| < 0.1 | > 3.16 | CCCCNc1nc(N)c2[nH]c(=O)n(CCCCN3CCN(C(C)(C)C)CC3)c2n1 [Example 41, 6-Amino-2-(butylamino)-9-{4-[4-(1,1-dimethylethyl)-1-piperazinyl]butyl}-7,9-dihydro-8H-purin-8-one] | < 3.16 |  |  |  |
| < 0.001 | > 1 | CCCCOc1nc(N)c2[nH]c(=O)n(CCCCCN3CCN(C)CC3)c2n1 [Example 46, 6-Amino-2-(butyloxy)-9-[5-(4-methyl-1-piperazinyl)pentyl]-7,9-dihydro-8H-purin-8-one] | < 3.16 | 1253 |  |  |
| < 0.01 | > 1 | CCCCOc1nc(N)c2[nH]c(=O)n(CCCCCN3CCN(C(C)C)CC3)c2n1 [Example 48, 6-Amino-2-(butyloxy)-9-{5-[4-(1-methylethyl)-1-piperazinyl]pentyl}-7,9-dihydro-8H-purin-8-one] | < 3.16 |  |  |  |
|  |  | CCC[C@H](C)Oc1nc(N)c2[nH]c(=O)n(CCCCCN3CCN(C(C)C)CC3)c2n1 [Example 52, 6-Amino-2-{[(1S)-1-methylbutyl]oxy}-9-{5-[4-(1-methylethyl)-1-piperazinyl]pentyl}-7,9-dihydro-8H-purin-8-one] | < 3.16 |  | > 50 | > 50 |
| < 0.01 | > 1 | CCCCOc1nc(N)c2[nH]c(=O)n(CCCCCCN3CCNCC3)c2n1 [Example 54, 6-Amino-2-(butyloxy)-9-[6-(1-piperazinyl)hexyl]-7,9-dihydro-8H-purin-8-one] | < 3.16 |  |  |  |
| < 0.001 | > 1 | CCCCOc1nc(N)c2[nH]c(=O)n(CCCCCCN3CCN(C(C)(C)C)CC3)c2n1 [Example 57, 6-Amino-2-(butyloxy)-9-{6-[4-(1,1-dimethylethyl)-1-piperazinyl]hexyl}-7,9-dihydro-8H-purin-8-one] | < 3.16 |  |  |  |
